# Columns and labels:
# Type in all cases: in vivo
# [1] = test system: Velvetleaf (Abutilon theophrasti, ABUTH); test: Example 52 greenhouse herbicidal inhibition, acifluorfen sodium compositions (Table 52); conditions: evaluated 10 days after application
# Description: (§1) Seeds of the plant species indicated were planted in 85 mm square pots in a soil mix which was previously steam sterilized and prefertilized with a 13-13-14 NPK slow release fertilizer at a rate of 3.6 kg/m^3. The pots were placed in a greenhouse with sub-irrigation. About one week after emergence, seedlings were thinned as needed, including removal of any unhealthy or abnormal plants, to create a uniform series of test pots.
# (§2) The plants were maintained for the duration of the test in the greenhouse where they received a minimum of 14 hours of light per day. If natural light was insufficient to achieve the daily requirement, artificial light with an intensity of approximately 475 microeinsteins was used to make up the difference. Exposure temperatures were not precisely controlled but averaged about 27° C. during the day and about 18° C. during the night. Plants were sub-irrigated throughout the test to ensure adequate soil moisture levels.
# (§3) A set of pots was left untreated as a reference against which effects of the treatments could later be evaluated.
# (§4) Application of glyphosate compositions was made by spraying with a track sprayer fitted with a 9501E nozzle calibrated to deliver a spray volume of 93 liters per hectare (l/ha) at a pressure of 166 kilopascals (kPa). After treatment, pots were returned to the greenhouse until ready for evaluation.
# (§5) For evaluation of herbicidal effectiveness, all plants in the test were examined by a single practiced technician, who recorded percent inhibition, a visual measurement of the effectiveness of each treatment by comparison with untreated plants.
# (§6) Velvetleaf (Abutilon theophrasti, ABUTH), Japanese millet (Echinochloa crus-galli, ECHCF) and prickly sida (Sida spinosa, SIDSP) plants were grown and treated by the standard procedures given above. Applications of spray compositions were made 15 days after planting ABUTH, 9 days after planting ECHCF and 22 days after planting SIDSP. Evaluation of herbicidal inhibition was done 10 days after application.
# [2] = test system: Prickly sida (Sida spinosa, SIDSP); test: as above; conditions: evaluated 10 days after application
# Description: as §1, §2, §3, §4, §5, §6
# [3] = test system: Japanese millet (Echinochloa crus-galli, ECHCF); test: as above; conditions: evaluated 10 days after application
# Description: as §1, §2, §3, §4, §5, §6
# [4] = test system: Prickly sida (Sida spinosa, SIDSP); test: Example 53 greenhouse herbicidal inhibition, asulam compositions (Table 53); conditions: asulam rate 200 g a.i./ha; evaluated 14 days after application
# Description: as §1
# (§7) The plants were maintained for the duration of the test in the greenhouse where they received a minimum of 14 hours of light per day. If natural light was insufficient to achieve the daily requirement, artificial light with an intensity of approximately 475 microeinsteins was used to make up the difference. […]
# as §3, §4
# (§8) For evaluation of herbicidal effectiveness, all plants in the test were examined by a single practiced technician, who recorded percent inhibition, a visual measurement of the effectiveness of each treatment by comparison with untreated plants. […]
# [5] = test system: Japanese millet (Echinochloa crus-galli, ECHCF); test: as above; conditions: asulam rate 200 g a.i./ha; evaluated 14 days after application
# Description: as §1, §7, §3, §4, §8
# [6] = test system: Velvetleaf (Abutilon theophrasti, ABUTH); test: Example 54 greenhouse herbicidal inhibition, dicamba sodium compositions (Table 54); conditions: evaluated 17 days after application
# Description: as §1, §2, §3, §4, §5
# as §6, with “14” for “15”, “8” for “9”, “21” for “22”, “17” for “10”
# [7] = test system: Prickly sida (Sida spinosa, SIDSP); test: as above; conditions: evaluated 17 days after application
# Description: as §1, §2, §3, §4, §5
# as §6, with “14” for “15”, “8” for “9”, “21” for “22”, “17” for “10”
# [8] = test system: Japanese millet (Echinochloa crus-galli, ECHCF); test: as above; conditions: evaluated 17 days after application
# Description: as §1, §2, §3, §4, §5
# as §6, with “14” for “15”, “8” for “9”, “21” for “22”, “17” for “10”
# [9] = test system: Japanese millet (Echinochloa crus-galli, ECHCF); test: Example 57 greenhouse herbicidal inhibition, fluazifop-p-butyl compositions (Table 57); conditions: fluazifop-p rate 5 g a.i./ha; evaluation 10 days after application
# Description: as §1, §2, §3
# […] After treatment, pots were returned to the greenhouse until ready for evaluation.
# as §8
# [10] = test system: Velvetleaf (Abutilon theophrasti, ABUTH); test: Example 51 greenhouse herbicidal inhibition, paraquat dichloride compositions (Table 51); conditions: evaluated 12 days after application
# Description: as §1, §2, §3, §4, §5
# as §6, with “14” for “15”, “8” for “9”, “21” for “22”, “12” for “10”
# [11] = test system: Prickly sida (Sida spinosa, SIDSP); test: as above; conditions: evaluated 12 days after application
# Description: as §1, §2, §3, §4, §5
# as §6, with “14” for “15”, “8” for “9”, “21” for “22”, “12” for “10”
# [12] = test system: Japanese millet (Echinochloa crus-galli, ECHCF); test: as above; conditions: evaluated 12 days after application
# Description: as §1, §2, §3, §4, §5
# as §6, with “14” for “15”, “8” for “9”, “21” for “22”, “12” for “10”
structure (smiles),measurement,setting,value
O=C(O)c1cc(Oc2ccc(C(F)(F)F)cc2Cl)ccc1[N+](=O)[O-] [Acifluorfen],% Inhibition ABUTH,[1]; acifluorfen rate 25 g a.i./ha,20%
same,% Inhibition ABUTH,[1]; acifluorfen rate 50 g a.i./ha,32%
same,% Inhibition ABUTH,[1]; acifluorfen rate 100 g a.i./ha,52%
same,% Inhibition ABUTH,[1]; acifluorfen rate 200 g a.i./ha,62%
same,% Inhibition SIDSP,[2]; acifluorfen rate 25 g a.i./ha,15%
same,% Inhibition SIDSP,[2]; acifluorfen rate 50 g a.i./ha,17%
same,% Inhibition SIDSP,[2]; acifluorfen rate 100 g a.i./ha,35%
same,% Inhibition SIDSP,[2]; acifluorfen rate 200 g a.i./ha,40%
same,% Inhibition ECHCF,[3]; acifluorfen rate 25 g a.i./ha,2%
same,% Inhibition ECHCF,[3]; acifluorfen rate 50 g a.i./ha,7%
same,% Inhibition ECHCF,[3]; acifluorfen rate 100 g a.i./ha,18%
same,% Inhibition ECHCF,[3]; acifluorfen rate 200 g a.i./ha,35%
COC(=O)NS(=O)(=O)c1ccc(N)cc1 [Asulam],% Inhibition SIDSP,[4],0%
same,% Inhibition ECHCF,[5],12%
COc1c(Cl)ccc(Cl)c1C(=O)O [Dicamba],% Inhibition ABUTH,[6]; dicamba rate 25 g a.i./ha,47%
same,% Inhibition ABUTH,[6]; dicamba rate 50 g a.i./ha,63%
same,% Inhibition ABUTH,[6]; dicamba rate 100 g a.i./ha,82%
same,% Inhibition ABUTH,[6]; dicamba rate 200 g a.i./ha,93%
same,% Inhibition SDSP,[7]; dicamba rate 25 g a.i./ha,30%
same,% Inhibition SDSP,[7]; dicamba rate 50 g a.i./ha,40%
same,% Inhibition SDSP,[7]; dicamba rate 100 g a.i./ha,50%
same,% Inhibition SDSP,[7]; dicamba rate 200 g a.i./ha,58%
same,% Inhibition ECHCF,[8]; dicamba rate 25 g a.i./ha,0%
same,% Inhibition ECHCF,[8]; dicamba rate 50 g a.i./ha,0%
same,% Inhibition ECHCF,[8]; dicamba rate 100 g a.i./ha,0%
same,% Inhibition ECHCF,[8]; dicamba rate 200 g a.i./ha,5%
CCCCOC(=O)[C@@H](C)Oc1ccc(Oc2ccc(C(F)(F)F)cn2)cc1 [Fluazifop-p-butyl (technical)],% Inhibition ECHCF,[9],3%
C[n+]1ccc(-c2cc[n+](C)cc2)cc1 [Paraquat dichloride],% Inhibition ABUTH,[10]; paraquat rate 25 g a.i./ha,50%
same,% Inhibition ABUTH,[10]; paraquat rate 50 g a.i./ha,57%
same,% Inhibition ABUTH,[10]; paraquat rate 100 g a.i./ha,73%
same,% Inhibition ABUTH,[10]; paraquat rate 200 g a.i./ha,85%
same,% Inhibition SIDSP,[11]; paraquat rate 25 g a.i./ha,55%
same,% Inhibition SIDSP,[11]; paraquat rate 50 g a.i./ha,60%
same,% Inhibition SIDSP,[11]; paraquat rate 100 g a.i./ha,69%
same,% Inhibition SIDSP,[11]; paraquat rate 200 g a.i./ha,99%
same,% Inhibition ECHCF,[12]; paraquat rate 25 g a.i./ha,83%
same,% Inhibition ECHCF,[12]; paraquat rate 50 g a.i./ha,78%
same,% Inhibition ECHCF,[12]; paraquat rate 100 g a.i./ha,84%
same,% Inhibition ECHCF,[12]; paraquat rate 200 g a.i./ha,95%

# — patent publication US6479434B1, “Composition and method for treating plants with exogenous chemicals” (Monsanto Technology LLC, priority 1996, dated 2002)
